The source of these data is patent US11234960B2, “Compositions and methods for improving mitochondrial function and treating neurodegenerative diseases and cognitive disorders” (Amazentis SA, priority 2010, dated 2022).

One test has as its system PC-12 cells. Briefly: Neurite outgrowth in NGF-differentiated PC-12 cells. Type of test: cell-based, rat. The following applies: 0.5 μM. On the procedure:
The ellagitannins and their metabolites tested in the assays were synthesized or purchased from suppliers which included Funakoshi, Sigma, and Chemos. Stock solutions were aliquoted and stored at −20° C.
PC-12 cells (ATCC CRL-1721) were cultured at 37° C., 5% CO2 in poly L-lysine-coated culture flasks in complete culture medium (RPMI 1640+10% heat-inactivated horse serum+5% fetal bovine serum).
Cell differentiation was performed in culture flasks 24 h after plating, in complete medium supplemented with 100 ng/mL NGF (2.5 S NGF, Invitrogen). The NGF-supplemented medium was renewed every third day, and differentiation was induced over an 8-day period.
All compounds to be tested were prepared just before the experiment as a 50 mM stock solution in dimethylsulfoxide (DMSO). The final DMSO concentration was 0.1% in the medium of all experimental groups.
For neurite outgrowth measurements, differentiated cells were washed with phosphate-buffered saline (PBS), collected after detachment and replated at a density of 5,000 cells/well (biocoat imaging 96 well plate) in complete medium supplemented with 100 ng/mL NGF, with or without 10 μM SP600125 (negative control), 1 mM dbcAMP (positive control), or tested compound at 5×10^−7 M. In the undifferentiated control group, no NGF was added after replating.
After 72 h in culture, PC-12 cells were washed with PBS and fixed in 1% paraformaldehyde solution for 20 minutes. After 3 washes with PBS, immunofluorescence labeling was performed with Texas Red Maleimide probe, which reacts with thiol groups of cysteine residues of proteins, permitting the visualization of the entire cell morphology, including neurites.
Immunofluorescence analysis was performed in automated confocal microscopy. Images were acquired with a BD pathway 855 system, under X20 objective with 8×8 field montage. Neurite outgrowth was then measured from acquired images with the neurite module of Metamorph® software. Total and mean outgrowth, total and mean number of processes per cell, and total and percentage of cells with extensive outgrowth (defined as outgrowth longer than 20 μm) were analyzed.

Test [1] relates to primary dopaminergic tyrosine hydroxylase (TH)-positive neurons. Briefly: Neurite outgrowth in primary dopaminergic TH-positive neurons. The following applies: 72 h; compounds 0.1 μM, SP600125 10 μM, dbcAMP 1 mM (FIG. 14). It counts as cell-based, rat. On the procedure:
Primary mesencephalic cultures were prepared from rat E14 embryos. Ventral mesencephalon was carefully dissected and dissociated. Cells were then plated in DMEM F12 medium containing 10% heat inactivated horse serum at the density of 100,000 cells/well (96-well plate), with or without the JNK-specific inhibitor SP600125 (10 μM) (which served as a negative control) or dbcAMP (1 mM) (which served as a positive control), or the compounds tested each at the doses of 0.1 μM.
72 h after plating, the effects on the neurite outgrowth of dopaminergic tyrosine hydroxylase (TH)-positive neurons were measured from images acquired by automated confocal microscopy (X4 objective, montage 4×4) and covering the entire well surface, and quantified using the Neurite outgrowth module of Metamorph® software. Several representative parameters of neurite outgrowth were thus generated: total and mean outgrowth, total and mean number of processes per cell, and total and percentage of cells with extensive outgrowth (defined as outgrowth longer than 20 μm) were analyzed. All experiments were performed in quadruplicate.

Regarding `O=C1OC[C@H]2OC(O)[C@H](O)[C@@H](O)[C@@H]2OC(=O)c2cc(O)c(O)c(O)c2-c2c(O)c(O)c3oc(=O)c4c(c(O)c(O)c5oc(=O)c2c3c54)-c2c1cc(O)c(O)c2O` (mixture of isomers) [punicalin], the “percent of cells showing significant outgrowth (>20 μm), increase vs differentiated cells” value in the test with PC-12 cells (72 h (FIG. 8)) stood at 26%. Further, the “number of processes (in words)” value with PC-12 cells (72 h, differentiated PC-12 cells) is on record as “induced an increase in the number of processes”. `Oc1c2ccccc2c2c3c(cccc13)N=N2` [SP600125] displayed an increase in branching in test [1] of 60%. Take `CCCC(=O)Nc1ncnc2c1ncn2[C@@H]1O[C@@H]2COP(=O)(O)O[C@H]2[C@H]1OC(=O)CCC` [dbcAMP, dibutyryl cyclic AMP]: in test [1], the increase in branching turned out to be 86%.
